The record followed here is patent publication US20060128628A1, “Human tissue antigen-binding peptides and their amino acid sequences” (priority 2004, published 2006).

In assay [1] the target is T1, human tissue antigen 0201 (HLA-A0201) (Homo sapiens, UniProt P04439, D140Y/D185E/D98H/E176V/E277Q/G131W/G231S/I119V/I121R/I166T/I218V/L300P/L318F/N151K/N90K/P208A/P217A/Q86G/Q94H/R138H/R169H/T345S).
T1 construct: T2 cell line is a cell line lacking of the transporters associated with antigen processing (TAP), TAP1 and TAP2; endogenous in cells; host or cells: T2 cell line (TAP1/TAP2-deficient)
Type of assay: cell-based.

Assay [2] relates to spleen lymphocytes expressing simultaneously CD8+ and IFN-γ+. Also on record: species or system C57BL/6 mice transgenic for human tissue antigen 0201. The following applies: in vivo.

On to ILPDPLKPT [S6], for which, in assay [1], the “binding to human tissue antigen 0201 on T2 cells (HLA-A2 expression, median fluorescence intensity)” value is on record as “could bind to the human tissue antigen 0201” and the “relative binding ability among peptides S1-S10 in the T2 cell binding test” value is “strongest binding ability”. Further, in assay [2], the “induction of antigen-specific cytotoxicity (lymphocytes expressing simultaneously CD8+ and IFN-γ+)” value is “could induce cytotoxicity”; the “induction of cytotoxicity by vaccine containing peptide (proportion of spleen lymphocytes expressing CD8+ and IFN-γ+)” value is reported as “could induce cytotoxicity”.
Regarding NLNESLIDL [S1], in assay [1], the “binding to human tissue antigen 0201 on T2 cells (HLA-A2 expression, median fluorescence intensity)” value is reported as “could bind to the human tissue antigen 0201”.
Take VLNDILSRL [S4]: the “binding to human tissue antigen 0201 on T2 cells (HLA-A2 expression, median fluorescence intensity)” value in assay [1] is on record as “could bind to the human tissue antigen 0201”.
On to VLYENQKQI [S5], for which the “binding to human tissue antigen 0201 on T2 cells (HLA-A2 expression, median fluorescence intensity)” value in assay [1] is listed as “could bind to the human tissue antigen 0201”.
As to VVFLHVTYV [S2], in assay [1], the “binding to human tissue antigen 0201 on T2 cells (HLA-A2 expression, median fluorescence intensity)” value is “could bind to the human tissue antigen 0201” and the “relative binding ability among peptides S1-S10 in the T2 cell binding test” value is recorded as “strongest binding ability”. For the same sequence, in assay [2], the “induction of antigen-specific cytotoxicity (lymphocytes expressing simultaneously CD8+ and IFN-γ+)” value is reported as “could induce cytotoxicity”; the “induction of cytotoxicity by vaccine containing peptide (proportion of spleen lymphocytes expressing CD8+ and IFN-γ+)” value is recorded as “could induce cytotoxicity”.
